We go through 37 compounds from a melting point compilation (Tetko et al.; mined from patent text by program, amines drawn as free bases though some values may be those of a salt).

SMILES strings stand for the structures. Where only a bound is given, the exact number is not on record here.

Turning to `COc1ccc2[nH]cc(-c3cc4nccnc4[nH]3)c2c1`, the melting point fell in the range of 268 to 271 °C.
With `NNC(=O)C(=O)N(N)C(=O)c1ccccc1` the figure was 226 °C.
With `COC(=O)c1cc(NC(=O)OC(C)(C)C)c(N)cc1I` the figure was 60 to 78 °C; with `COC(=O)c1sc2cc(CO)ccc2c1C`, 121 to 123 °C.
With `O=C(Nc1nc2ccc(Sc3cnc4ncccn34)cc2s1)c1ccccc1` the figure was above 260 °C; with `OCCC1(c2ccccc2)CCNC1` (configuration not stated), 106 to 110 °C; with `CCOC(=O)N1CCC(NC(=O)c2ccc(Cl)c(Cl)c2)C12CCCCC2` (configuration not stated), 153 to 155 °C.
For the compound `CC(=O)Nc1ccc(Oc2c(-c3ccc(S(C)(=O)=O)cc3)cnn(CC(F)(F)F)c2=O)cc1`, the melting point is 215 to 216 °C.
With `CCn1cc(C(=O)O)c(=O)c2cc(F)c(N3CCNC(CF)C3)cc21` (configuration not stated) the figure was 177 to 180 °C.
For `CCOC(=O)c1[nH]c2cc(Cl)cc(Cl)c2c1NCC(=O)c1ccccc1F`, the melting point was above 290 °C.
As for `O=C1C2C3C=CC(C3)C2C(=O)N1OS(=O)(=O)CCSC1CCCCC1` (configuration not stated), the melting point is 96 to 98 °C.
The compound `CCc1ccc2nc(Cl)nc(Cl)c2c1` gave a melting point of 80 to 83 °C.
With `NC(=O)c1c(OCc2c(F)cc(Br)cc2F)nsc1NC(=O)NCCCCN1CCCC1` the figure was 208 °C.
On to `COC1(Cl)C=C(F)C=C(C=O)C1` (configuration not stated), for which the melting point fell in the range of 59 to 61 °C.
Turning to `CN(CC(=O)O)C(=O)CCSC(=O)c1ccccc1`, the melting point lay in the range of 139 to 140 °C.
Then `CN(C)C(=O)c1noc(-c2cnccc2C(F)(F)F)n1`, with 52 to 54 °C; and `Cc1cc(C(=O)NCO)ncc1C(c1c(F)ccc(F)c1F)S(=O)(=O)c1ccc(F)c(F)c1` (configuration not stated), with 119 to 120 °C; and `COc1c(C)cc2c(c1C)Cc1c-2[nH]c2ccccc12`, with 177 °C.
Consider `CCOC(=O)C1=C(N)C(NCC(O)COCc2cccc(CN3CCCCC3)c2)=NS1(=O)=O` (configuration not stated), for which the melting point fell in the range of 72 to 74 °C.
As to `CC(C)OC(=O)c1cc(-n2c(=O)[nH]c3c(c2=O)CCCC3)c(F)cc1Cl`, the melting point was in the range of 203 to 205 °C.
For the compound `N#Cc1cccc(NC(=O)C(=O)N2CCC(Cc3ccc(F)cc3)CC2)c1`, the melting point is 135 to 138 °C.
The compound `CNC(=O)C(Cc1c[nH]c2ccccc12)NC(=O)C(CC(C)C)C(S)CC(=O)OC` (configuration not stated) registered a melting point of 73 to 75 °C.
The compound `CCc1oc2ccccc2c1C(=O)c1ccc(Br)c(S(N)(=O)=O)c1` registered a melting point of 202 to 206 °C.
Consider `COc1ccc(CN2C(=O)[C@@H](Cl)[C@H]2[C@@H]2COC(C)(C)O2)c(OC)c1`, for which the melting point was 140 to 142 °C.
The compound `COc1cc2[nH]ccc(=O)c2cc1OC` showed a melting point of 120 to 122 °C.
For the compound `Cc1nn(-c2ccccc2)cc1C(=O)Nc1ccc(OCC(C)(C)C)c(C#N)c1`, the melting point lay in the range of 155 to 156 °C.
Regarding `C=CCNC(=O)C1CCc2cc(Cl)ccc2O1` (configuration not stated), the melting point fell in the range of 112 to 114 °C.
Then `Cc1noc(CCc2c(-c3ccccc3)c(=O)[nH]c3cc(Cl)ccc23)n1`, with 235 to 238 °C; and `CC(C)n1nc(-c2c(OCCN(C)C)nc(N)nc2-c2ccccc2)ccc1=O`, with 130 to 132 °C; and `OCc1cnoc1-c1ccc(Cl)cc1Cl`, with 76 to 77 °C.
The compound `Cc1ccc(-c2nc(Cl)c3ccccc3n2)cc1` gave a melting point of 113 to 115 °C.
For the compound `CC(CSC#N)C(=O)O` (configuration not stated), the melting point was in the range of 24 to 25 °C.
Then `COC(=O)c1ccc([N+](=O)[O-])cc1S(=O)(=O)O`, with 92 to 94 °C.
The compound `CS(=O)(=O)OCCCCCCNC(=O)CNC(=O)OCc1ccccc1` displayed a melting point of 82 to 83 °C.
For `CC(=O)Oc1ccc(-c2ccc3oc(C(=O)O)cc3c2)cc1`, the melting point fell in the range of 251 to 254 °C.
Regarding `C/C(=C\C=C(c1ccccc1)c1ccccc1)C(=O)NCCCCc1cccnc1`, the melting point lay within 93 to 94 °C.
Then `CC(COc1ccc(C(N)=O)c(O)c1)NCC(O)c1ccccc1` (configuration not stated), with 171 to 173 °C.

A word on the melting point: it is the temperature, or range, at which the solid turns liquid.
